# In the supplement of paper PMC10307832:
# Columns and labels:
# Assay in all cases: relative viability (nuclei count vs DMSO), 5 days (fraction); higher = more cells survive
# NCI-H1975 = test system: NCI-H1975
# Method in brief: (§1)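 Relative viability was taken as the ratio of nuclei in treated wells to nuclei in vehicle wells. Lung cancer cell lines in 1536-well plates received compounds by pin tool one day after seeding, either one drug alone or a fixed anchor-drug dose plus five library-drug doses (not always all listed) in √10 steps. Nuclei were counted on 4× images after 5 days of treatment, and values are medians of duplicate plates.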
# EPLC-272H = test system: EPLC-272H
# Method in brief: as §1
# NCI-H441 = test system: NCI-H441
# Method in brief: as §1
# NCI-H2342 = test system: NCI-H2342
# Method in brief: as §1
# NCI-H2228 = test system: NCI-H2228
# Method in brief: as §1
# COR-L 105 = test system: COR-L 105
# Method in brief: as §1
# NCI-H1355 = test system: NCI-H1355
# Method in brief: as §1
# NCI-H2085 = test system: NCI-H2085
# Method in brief: as §1
# H3255 = test system: H3255
# Method in brief: as §1
# HCC-366 = test system: HCC-366
# Method in brief: as §1
# NCI-H2087 = test system: NCI-H2087
# Method in brief: as §1
# NCI-H2009 = test system: NCI-H2009
# Method in brief: as §1
# NCI-H1792 = test system: NCI-H1792
# Method in brief: as §1
# ABC-1 = test system: ABC-1
# Method in brief: as §1
# EKVX = test system: EKVX
# Method in brief: as §1
# ChaGo-K-1 = test system: ChaGo-K-1
# Method in brief: as §1
# NCI-H322M = test system: NCI-H322M
# Method in brief: as §1
# NCI-H460 = test system: NCI-H460
# Method in brief: as §1
# HCC-827 = test system: HCC-827
# Method in brief: as §1
# CAL-12T = test system: CAL-12T
# Method in brief: as §1
# NCI-H1993 = test system: NCI-H1993
# Method in brief: as §1
# SK-MES-1 = test system: SK-MES-1
# Method in brief: as §1
smiles,measurement,setting,value
Cc1csc(=NC2CCCCC2)n1/N=C/c1ccc(O)c(O)c1O [MIM1] + CC(=O)c1c(C)c2cnc(Nc3ccc(N4CCNCC4)cn3)nc2n(C2CCCC2)c1=O [Palbociclib] (partner 0.5 µM),relative viability,NCI-H1975; first compound 0.2 µM,0.529
same,relative viability,NCI-H1975; first compound 0.6325 µM,0.67
same,relative viability,NCI-H1975; first compound 2 µM,0.519
same,relative viability,NCI-H1975; first compound 6.325 µM,0.256
same,relative viability,NCI-H1975; first compound 20 µM,0.169
same,relative viability,EPLC-272H; first compound 0.2 µM,0.328
same,relative viability,EPLC-272H; first compound 0.6325 µM,0.332
same,relative viability,EPLC-272H; first compound 2 µM,0.302
same,relative viability,EPLC-272H; first compound 6.325 µM,0.279
same,relative viability,EPLC-272H; first compound 20 µM,0.149
same,relative viability,NCI-H441; first compound 0.2 µM,0.273
same,relative viability,NCI-H441; first compound 0.6325 µM,0.266
same,relative viability,NCI-H441; first compound 2 µM,0.205
same,relative viability,NCI-H441; first compound 6.325 µM,0.186
same,relative viability,NCI-H441; first compound 20 µM,0.114
same,relative viability,NCI-H2342; first compound 0.2 µM,0.525
same,relative viability,NCI-H2342; first compound 0.6325 µM,0.543
same,relative viability,NCI-H2342; first compound 2 µM,0.573
same,relative viability,NCI-H2342; first compound 6.325 µM,0.515
same,relative viability,NCI-H2342; first compound 20 µM,0.57
same,relative viability,NCI-H2228; first compound 0.2 µM,0.835
same,relative viability,NCI-H2228; first compound 0.6325 µM,0.646
same,relative viability,NCI-H2228; first compound 2 µM,0.899
same,relative viability,NCI-H2228; first compound 6.325 µM,0.177
same,relative viability,NCI-H2228; first compound 20 µM,0.133
same,relative viability,COR-L 105; first compound 0.2 µM,0.472
same,relative viability,COR-L 105; first compound 0.6325 µM,0.435
same,relative viability,COR-L 105; first compound 2 µM,0.396
same,relative viability,COR-L 105; first compound 6.325 µM,0.396
same,relative viability,COR-L 105; first compound 20 µM,0.323
same,relative viability,NCI-H1355; first compound 0.2 µM,0.391
same,relative viability,NCI-H1355; first compound 0.6325 µM,0.371
same,relative viability,NCI-H1355; first compound 2 µM,0.41
same,relative viability,NCI-H1355; first compound 6.325 µM,0.385
same,relative viability,NCI-H1355; first compound 20 µM,0.288
same,relative viability,NCI-H2085; first compound 0.2 µM,0.476
same,relative viability,NCI-H2085; first compound 0.6325 µM,0.466
same,relative viability,NCI-H2085; first compound 2 µM,0.461
same,relative viability,NCI-H2085; first compound 6.325 µM,0.482
same,relative viability,NCI-H2085; first compound 20 µM,0.537
same,relative viability,H3255; first compound 0.2 µM,0.308
same,relative viability,H3255; first compound 0.6325 µM,0.326
same,relative viability,H3255; first compound 2 µM,0.31
same,relative viability,H3255; first compound 6.325 µM,0.326
same,relative viability,H3255; first compound 20 µM,0.243
same,relative viability,HCC-366; first compound 0.2 µM,0.384
same,relative viability,HCC-366; first compound 2 µM,0.236
same,relative viability,HCC-366; first compound 6.325 µM,0.127
same,relative viability,HCC-366; first compound 20 µM,0.0225
same,relative viability,NCI-H2087; first compound 0.2 µM,0.228
same,relative viability,NCI-H2087; first compound 0.6325 µM,0.269
same,relative viability,NCI-H2087; first compound 2 µM,0.24
same,relative viability,NCI-H2087; first compound 6.325 µM,0.226
same,relative viability,NCI-H2087; first compound 20 µM,0.206
same,relative viability,NCI-H2009; first compound 0.2 µM,0.288
same,relative viability,NCI-H2009; first compound 0.6325 µM,0.266
same,relative viability,NCI-H2009; first compound 2 µM,0.331
same,relative viability,NCI-H2009; first compound 6.325 µM,0.167
same,relative viability,NCI-H2009; first compound 20 µM,0.122
same,relative viability,NCI-H1792; first compound 0.2 µM,0.659
same,relative viability,NCI-H1792; first compound 0.6325 µM,0.622
same,relative viability,NCI-H1792; first compound 2 µM,0.644
same,relative viability,NCI-H1792; first compound 6.325 µM,0.475
same,relative viability,NCI-H1792; first compound 20 µM,0.56
same,relative viability,ABC-1; first compound 0.2 µM,0.603
same,relative viability,ABC-1; first compound 0.6325 µM,0.988
same,relative viability,ABC-1; first compound 2 µM,0.544
same,relative viability,ABC-1; first compound 6.325 µM,0.406
same,relative viability,ABC-1; first compound 20 µM,0.473
same,relative viability,EKVX; first compound 0.2 µM,0.332
same,relative viability,EKVX; first compound 0.6325 µM,0.367
same,relative viability,EKVX; first compound 2 µM,0.339
same,relative viability,EKVX; first compound 6.325 µM,0.312
same,relative viability,EKVX; first compound 20 µM,0.286
same,relative viability,ChaGo-K-1; first compound 0.2 µM,0.951
same,relative viability,ChaGo-K-1; first compound 0.6325 µM,0.926
same,relative viability,ChaGo-K-1; first compound 2 µM,0.961
same,relative viability,ChaGo-K-1; first compound 6.325 µM,0.7
same,relative viability,ChaGo-K-1; first compound 20 µM,0.163
same,relative viability,NCI-H322M; first compound 0.2 µM,0.466
same,relative viability,NCI-H322M; first compound 0.6325 µM,0.466
same,relative viability,NCI-H322M; first compound 2 µM,0.488
same,relative viability,NCI-H322M; first compound 6.325 µM,0.459
same,relative viability,NCI-H322M; first compound 20 µM,0.384
same,relative viability,NCI-H460; first compound 0.2 µM,0.219
same,relative viability,NCI-H460; first compound 0.6325 µM,0.169
same,relative viability,NCI-H460; first compound 2 µM,0.106
same,relative viability,NCI-H460; first compound 6.325 µM,0.0475
same,relative viability,NCI-H460; first compound 20 µM,0.027
same,relative viability,HCC-827; first compound 0.2 µM,0.443
same,relative viability,HCC-827; first compound 0.6325 µM,0.511
same,relative viability,HCC-827; first compound 2 µM,0.454
same,relative viability,HCC-827; first compound 6.325 µM,0.307
same,relative viability,HCC-827; first compound 20 µM,0.227
same,relative viability,CAL-12T; first compound 0.2 µM,0.526
same,relative viability,CAL-12T; first compound 0.6325 µM,0.386
same,relative viability,CAL-12T; first compound 2 µM,0.481
same,relative viability,CAL-12T; first compound 6.325 µM,0.268
same,relative viability,CAL-12T; first compound 20 µM,0.118
same,relative viability,NCI-H1993; first compound 0.2 µM,0.624
same,relative viability,NCI-H1993; first compound 0.6325 µM,0.706
same,relative viability,NCI-H1993; first compound 2 µM,0.659
same,relative viability,NCI-H1993; first compound 6.325 µM,0.514
same,relative viability,NCI-H1993; first compound 20 µM,0.349
same,relative viability,SK-MES-1; first compound 0.2 µM,0.286
same,relative viability,SK-MES-1; first compound 0.6325 µM,0.327
same,relative viability,SK-MES-1; first compound 2 µM,0.282
same,relative viability,SK-MES-1; first compound 6.325 µM,0.259
same,relative viability,SK-MES-1; first compound 20 µM,0.174
